Laboratory results: PubChem BioAssay AID1918994 (Molecular Pharmacology Branch, DTP, NCI, 2023)

Test system: 292921-168-R-J2-PDC complex spheroid growth
Assay: Anticancer human tumor 292921-168-R-J2-PDC patient-derived pancreatic carcinoma cell line growth inhibition [AhR]
Details: for viability, T/C: stronger effect = lower value
From the text: Multicellular complex tumor spheroid response to aryl hydrocarbon receptor antagonists in combination with a variety of drugs and investigational agents in selected tumor cell lines
The current study was undertaken to assess response to aryl hydrocarbon receptor antagonists in combination with standard-of-care drugs and investigational agents in solid tumor complex spheroid models. Complex spheroids include a stromal component modeled by human endothelial cells (HUVEC) and fibroblasts modeled by human mesenchymal stem cells (MSCs). The concentration ranges selected for each drug and investigational agent were based upon clinically achievable concentrations if the clinical Cmax of the agent was known.
Compounds. The drugs and investigational agents: BAY 2416964 (NSC825713), GNF351 (NSC835774), CH-223191 (NSC835775), CPI-455 (NSC825282), aza-TdCyd (NSC777586), decitabine (NSC127716), belinostat (NSC758774), entinostat (NSC756642), pevonedistat (NSC761192), tazemetostat (NSC777109), talazoparib (NSC765396), olaparib (NSC753686), selinexor (NSC780203), nedisertib (M3814, NSC802822), bortezomib (NSC756655), venetoclax (NSC766270), doxorubicin (NSC123127), elimusertib (BAY189344, NSC800525), ceralasertib (AZD6738, NSC777638), TAK-243 (NSC785004), alisertib (NSC759677), etoposide (NSC141540), topotecan (NSC609699), eribulin (NSC707389), gemcitabine (NSC613327), carboplatin (NSC241240), cisplatin (NSC119875), and SN-38 (NSC673596) were obtained from the National Cancer Institute (NCI) Developmental Therapeutics Program Chemical Repository (32). The FDA-approved anticancer drug set is available from the Developmental Therapeutics Program at https://dtp.cancer.gov/organization/dscb/obtaining/available plates.htm. […] The stock solutions were prepared in dimethyl sulfoxide (DMSO, Sigma-Aldrich, St. Louis, MO, cat. D2650), except for the platinum compounds which were prepared in saline (Quality Biological, Gaithersburg, MD, cat. 114-055-101), at 800-fold the tested concentration and stored at -70 degrees C prior to their use. All drugs and investigational agents were tested over a range starting from a high concentration at or near the clinical Cmax and decreasing in half-log increments. If the clinical Cmax for an agent had not been determined, the highest concentration tested was 10 microM (Table 1).
Cell Culture. All cells were maintained in an incubator at 37 degrees C and 5% CO2 with 95% humidity. The PDC lines were cultured according to standard operating procedures established by the NCI PDMR (https://pdmr.cancer.gov). Briefly, all PDCs were thawed and cultured in Matrigel-coated flasks prepared with a working solution of 1X Ham's F-12 nutrient mix, without supplementation (Invitrogen, Waltham, MA, cat. 11765054), 100 U/mL penicillin-streptomycin (Invitrogen, cat. 15140122), and 2.5% Matrigel (Corning Inc., Corning, NY, cat. 354248) for the first three passages. All PDCs were cultured in complete DMEM/F-12 media containing advanced DMEM/F-12 (Invitrogen, cat. 12634028), 4.9% defined fetal bovine serum, heat inactivated (HyClone Laboratories Inc., Logan, UT, cat. SH30070.03HI), 389 ng/mL hydrocortisone (Sigma-Aldrich, cat. H4001), 9.7 ng/mL human EGF recombinant protein (Invitrogen, cat. PHG0313), 23.4 microg/mL adenine (Sigma-Aldrich, cat. A2786), 97.3 U/mL penicillin-streptomycin (Invitrogen, cat. 15140122), 1.9 mM L-glutamine (Invitrogen, cat. 25030081), and 9.7 microM Y-27632 dihydrochloride (Tocris Bioscience, Bristol, United Kingdom, cat. 1254). The PDCs were cultured in complete DMEM/F12 media without 10 microM Y-27632 dihydrochloride for at least two passages prior to the screen. The established cell lines NCI-H1341 and […] were cultured in DMEM/F-12, HEPES (Invitrogen, cat. 11330032), 5% defined fetal bovine serum (HyClone Laboratories Inc., cat. SH30070.03), ITS premix universal culture supplement [insulin (5 microg/mL), transferrin (5 microg/mL), and selenious acid (5 ng/mL)] […]

[1] = curve of first compound, second compound 0.1 µM
[2] = curve of first compound, second compound 0.316 µM
[3] = curve of first compound, second compound 1 µM
[4] = curve of first compound, second compound 3.16 µM
[5] = curve of first compound, second compound 10 µM
[6] = second compound 0.1 µM, first compound 0.0316 µM
[7] = second compound 0.1 µM, first compound 0.1 µM
[8] = second compound 0.1 µM, first compound 0.316 µM
[9] = second compound 0.1 µM, first compound 1 µM
[10] = second compound 0.1 µM, first compound 3.16 µM
[11] = second compound 0.1 µM, first compound 10 µM
[12] = second compound 0.316 µM, first compound 0.0316 µM
[13] = second compound 0.316 µM, first compound 0.1 µM
[14] = second compound 0.316 µM, first compound 0.316 µM
[15] = second compound 0.316 µM, first compound 1 µM
[16] = second compound 0.316 µM, first compound 3.16 µM
[17] = second compound 0.316 µM, first compound 10 µM
[18] = second compound 1 µM, first compound 0.0316 µM
[19] = second compound 1 µM, first compound 0.1 µM
[20] = second compound 1 µM, first compound 0.316 µM
[21] = second compound 1 µM, first compound 1 µM
[22] = second compound 1 µM, first compound 3.16 µM
[23] = second compound 1 µM, first compound 10 µM
[24] = second compound 3.16 µM, first compound 0.0316 µM
[25] = second compound 3.16 µM, first compound 0.1 µM
[26] = second compound 3.16 µM, first compound 0.316 µM
[27] = second compound 3.16 µM, first compound 1 µM
[28] = second compound 3.16 µM, first compound 3.16 µM
[29] = second compound 3.16 µM, first compound 10 µM
[30] = second compound 10 µM, first compound 0.0316 µM
[31] = second compound 10 µM, first compound 0.1 µM
[32] = second compound 10 µM, first compound 0.316 µM
[33] = second compound 10 µM, first compound 1 µM
[34] = second compound 10 µM, first compound 3.16 µM
[35] = second compound 10 µM, first compound 10 µM
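Further: spheroids exposed to compounds for seven days after three days of growth.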

| IC50 [1] | IC50 [2] | IC50 [3] | IC50 [4] | IC50 [5] | Structure (SMILES) | viability, T/C [6] | viability, T/C [7] | viability, T/C [8] | viability, T/C [9] | viability, T/C [12] | viability, T/C [13] | viability, T/C [14] | viability, T/C [15] | viability, T/C [18] | viability, T/C [19] | viability, T/C [20] | viability, T/C [21] | viability, T/C [24] | viability, T/C [25] | viability, T/C [26] | also measured |
| --- | --- | --- | --- | --- | --- | --- | --- | --- | --- | --- | --- | --- | --- | --- | --- | --- | --- | --- | --- | --- | --- |
| – | – | – | – | – | Cc1ccccc1N=Nc1ccc(NC(=O)c2ccnn2C)c(C)c1 | – | – | – | – | – | – | – | – | – | – | – | – | – | – | – | viability, T/C (compound 0.1 µM): 91.3% [middle of 19 runs]; viability, T/C (compound 0.316 µM): 85.6% [middle of 20 runs]; viability, T/C (compound 1 µM): 82.1% [middle of 20 runs]; viability, T/C (compound 10 µM): 62.7% [middle of 21 runs]; IC50 (compound alone, run of 06/14/2022): > 10000 nM |
| 645 nM | 563 nM | 542 nM | 421 nM | 163 nM | COc1cc(C2c3cc4c(cc3C(OC3OC5COC(C)OC5C(O)C3O)C3COC(=O)C23)OCO4)cc(OC)c1O (stereo not given) + CC(CO)NC(=O)c1cc(-c2ccc(Cl)cc2)nn(-c2cnn(C)c2)c1=O | 95.7% | 92.4% | 67.9% | 38% | 89.3% | 85.5% | 65% | 33.6% | 98.8% | 90.9% | 61.7% | 34.4% | 85.1% | 75% | 56.3% | viability, T/C [10]: 22.6%; viability, T/C [11]: 13.7%; viability, T/C [16]: 24.4%; viability, T/C [17]: 13.7%; viability, T/C [22]: 24.6%; viability, T/C [23]: 13.7%; viability, T/C [27]: 31.3%; viability, T/C [28]: 22.4%; viability, T/C [29]: 11.8%; viability, T/C [30]: 60.9%; viability, T/C [31]: 60%; viability, T/C [32]: 38.8%; viability, T/C [33]: 27.4%; viability, T/C [34]: 19.6%; viability, T/C [35]: 11.4% |
| < 31.6 nM | < 31.6 nM | < 31.6 nM | < 31.6 nM | < 31.6 nM | COc1cccc2c1C(=O)c1c(O)c3c(c(O)c1C2=O)CC(O)(C(=O)CO)CC3OC1CC(N)C(O)C(C)O1 (stereo not given) + CC(CO)NC(=O)c1cc(-c2ccc(Cl)cc2)nn(-c2cnn(C)c2)c1=O | 32.5% | 22.5% | 7.11% | 1.19% | 31.8% | 21.6% | 8.73% | 1.26% | 31.9% | 26.1% | 8.6% | 1.22% | 29.6% | 22.4% | 5.98% | viability, T/C [10]: 3.72%; viability, T/C [11]: 4.17%; viability, T/C [16]: 2.17%; viability, T/C [17]: 4.63%; viability, T/C [22]: 2%; viability, T/C [23]: 4.64%; viability, T/C [27]: 1.4%; viability, T/C [28]: 2.71%; viability, T/C [29]: 3.71%; viability, T/C [30]: 25.2%; viability, T/C [31]: 19.9%; viability, T/C [32]: 4.23%; viability, T/C [33]: 1.07%; viability, T/C [34]: 2.43%; viability, T/C [35]: 5.08% |
| > 1000 nM | > 1000 nM | > 1000 nM | > 1000 nM | > 1000 nM | Nc1ncn(C2CC(O)C(CO)O2)c(=O)n1 (stereo not given) + CC(CO)NC(=O)c1cc(-c2ccc(Cl)cc2)nn(-c2cnn(C)c2)c1=O | 87.1% | 88.8% | 80.9% | 73.7% | 105% | 90.8% | 85.8% | 77.8% | 103% | 94.5% | 86.2% | 78.8% | 92.4% | 76.5% | 81.4% | viability, T/C (second compound 0.1 µM, first compound 0.00316 µM): 102%; viability, T/C (second compound 0.1 µM, first compound 0.01 µM): 93.3%; viability, T/C (second compound 0.316 µM, first compound 0.00316 µM): 101%; viability, T/C (second compound 0.316 µM, first compound 0.01 µM): 96.3%; viability, T/C (second compound 1 µM, first compound 0.00316 µM): 97.5%; viability, T/C (second compound 1 µM, first compound 0.01 µM): 104%; viability, T/C (second compound 3.16 µM, first compound 0.00316 µM): 94.7%; viability, T/C (second compound 3.16 µM, first compound 0.01 µM): 91%; viability, T/C [27]: 69.5%; viability, T/C (second compound 10 µM, first compound 0.00316 µM): 70.3%; viability, T/C (second compound 10 µM, first compound 0.01 µM): 72.8%; viability, T/C [30]: 71%; viability, T/C [31]: 73%; viability, T/C [32]: 63%; viability, T/C [33]: 62.5% |
